EP0472573B1, “HERBICIDE RESISTANT MAIZE” (ZENECA LIMITED, priority 1989, dated 1990)

What was measured:
Mutant 8 plants = experiment: Cross-resistance testing (glasshouse dose response), Mutant 8; type: in vivo, Zea mays; conditions: pre-emergence spray, assessed after four weeks growth
Description: (§1) The seeds used in this screen were populations of mixed tolerant and sensitive seed, segregating 1:1, derived from each of the heterogygous, tolerant mutants crossed with homozygous, sensitive UE95. All of the tolerant progeny are heterozygous for tolerance. Each of the mutants identified above were used except mutant 4. The controls were seed of self-pollinated UE95 which was pollinated in the same year as the tolerant lines.
(§2) One litre of compost was placed in each seed tray of dimensions 19cm x 11cm x 5cm deep and firmed down flat. Two furrows 1 cm deep were drawn in the surface of the compost in each tray and six seeds were sown in each furrow (total twelve seeds per tray). Some trays were sown with 24 seeds, in which case three furrows were made and 8 seeds sown per furrow.
(§3) In each test each tray contained either the seed of one mutant or of the UE95 control for each herbicide application rate and for the untreated control.
(§4) Five different types of ALS-inhibitor herbicides were tested on the mutants plus imazethapyr (PURSUIT) as a comparison. Four rates of each were applied; approximately 0.1x, 0.5x, 1x and 4x the estimated field rates for each herbicide. The rates are the same for mutant 3 to 10 but higher rates for chlorimuron (CLASSIC) and lower rates for chlorsulfuron (GLEAN) were applied to mutants 1 and 2.
(§5) The rates of application used in the screening tests were as follows: chlorimuron (CLASSIC) 4,20,40,160 g/Ha (mutants 1 and 2); and, 8,40,80,320 g/Ha (mutants 3 to 10); chlorsulfuron (GLEAN) 5,25,50,200 g/Ha (mutants 1 and 2); and, 1,5,10,40 g/Ha (mutants 3 to 10); imazaquin (SCEPTER) 30,150,300,1200 g/Ha; triazolopyrimidine 5,25,50,200 g/Ha; phenoxypyrimidine 10,50,100,400 g/Ha; and, imazethapyr (PURSUIT) 30,150,300,1200 g/Ha The triazolopyrimidine and phenoxypyrimidine were formulated in an adjuvant wetting agent known as JF5969 and diluted with water to make a final concentration of 10% JF5969. The remaining compounds were diluted with water only.
(§6) The spray jet and parameters were as decribed above under "SCREENING". After spraying, the seeds were covered with 0.5 litre of compost and firmed down flat (2.5cm covering) and grown under the conditions described under "SCREENING" above.
(§7) Visual assessments were made of the plants after four weeks growth. Each plant was scored on a scale of zero to 5 and the height measured from soil surface to the tallest leaf tip. The scoring scale was as follows: 0 - 0 to 10% damage (little or no herbicidal effect) 1 - 11 to 25% damage 2 - 26 to 50% damage 3 - 51 to […] 4 - 81 to 95% damage 5 - 96 to 100% damage (complete death of the plant) In carrying out these assessments, plants which were obviously of the sensitive phenotype were ignored (approximately 50% of the plants). […]

Mutant 6 plants = experiment: Cross-resistance testing (glasshouse dose response), Mutant 6; type: in vivo, Zea mays; conditions: pre-emergence spray, assessed after four weeks growth
Description: as §1, §2, §3, §4, §5, §6, §7

Mutant 1 plants = experiment: Cross-resistance testing (glasshouse dose response), Mutant 1; type: in vivo, Zea mays; conditions: pre-emergence spray, assessed after four weeks growth
Description: as §1, §2, §3, §4, §5, §6, §7

[1] = biological target: ALS enzyme extracted from Mutant 7 (heterozygous); experiment: ALS enzyme assay, heterozygous Mutant 7; type: biochemical, Zea mays; conditions: for IC50: ALS of heterozygous Mutant 7, read-out: ID50% (the source's name); for resistance group, Enzyme Assay: Mutant 7, groups Strong, Intermediate, Weak, Zero; for Fold Increase: fold increase in resistance vs wild type, heterozygous Mutant 7, 30 min
Description: Seeds of generation M₁BC₁ M₁BC₂ of the nine mutants were sprayed pre-emergence with the herbicide imazethapyr (PURSUIT) (Trade Mark) at a rate of 250 g/ha and grown in a growth chamber (16 hour day, 27°C; 8 hour night, 17°C). Plants were harvested after 11 days.
(§8) Four grams of leaf material were harvested from just above the first leaf axis and ground in a mortar and pestle in 20ml of a solution containing 40mM Tricine (Trade Mark), 10mM EDTA, 5mM pyruvate, 80 »M flavin adenine dinucleotide (FAD), 1mM dithiothreitol (DTT), pH 8, plus 0.8g Polyclar AT. The homogenate was pressed through four layers of muslin and centrifuged at 30,000g for 20 minutes.
(§9) The supernatant was brought to 65% saturation with ammonium sulphate, left to precipitate for 30 minutes and then centrifuged at 30.000g for 20 minutes. The pellet was resuspended in 2.5ml of 40mM Tricine, 10mM EDTA, 5mM pyruvate, 80»M FAD, 25% (v/v) glycerol, 1mM DTT, pH 8, and desalted into 3.5ml of 40mM Tricine, 10mM EDTA, 25% (v/v) glycerol, 1mM DTT, pH 8.
(§10) One hundred microlitres of the enzyme extract was used for each assay. Final reagent concentrations were: 120mM Tricine, 50mM pyruvate, 10mM MgCl₂, […], 93»M thiamine pyrophosphate (TPP), pH 8, in the presence or absence of a herbicide of interest, in a volume of 750 »l. Incubations were carried out at 37°C for 30 minutes. Reactions were stopped with 250»l of 1.84M sulphuric acid, and decarboxylation of the acetolactate carried out at 37°C for 75 minutes, or at 60°C for 30 minutes. Assay blanks had sulphuric acid added prior to the enzyme extract. To the samples and blanks 650»l of α-naphthol in 2.73M NaOH/0.16%(w/v) creatine were added followed by incubation at 37°C for 30 minutes. After centrifugation at 30,000g the optical density of the supernatant was read at 540nm.
(§11) The assay procedure described was carried out on ALS enzyme extracted from each of the nine mutants for the following herbicides: imazethapyr (PURSUIT) imazapyr (ARSENAL) imazaquin (SCEPTER) chlorsulfuron (GLEAN) chlorimuron (CLASSIC) […] (HARMONY) The enzyme activity graphs are given as Figures 3 to 8. In addition, homozygous lines of mutants 1 and 2 which were selected from generation M₁BC₁S₂, were also tested against the same group of herbicides and against representatives of the triazolopyrimidines and phenoxypyrimidines. The chemical structures of these herbicides are shown in Figure 2 of the accompanying drawings.
(§12) From the enzyme assay data it is possible to derive, as a measure of the degree of inhibition the factor ID50% for each mutant and for each herbicide. This factor is indicative of the herbicide concentration which gives 50% inhibition of the ALS activity in comparison with the wild-type control. It is also possible to derive the fold increase in resistance.

Mutant 5 plants = experiment: Cross-resistance testing (glasshouse dose response), Mutant 5; type: in vivo, Zea mays; conditions: pre-emergence spray, assessed after four weeks growth
Description: as §1, §2, §3, §4, §5, §6, §7

[2] = biological target: ALS extracted from leaves of MUTANT 1 (homozygous); experiment: ALS enzyme assay, homozygous Mutant 1; type: biochemical, Zea mays; conditions: for IC50: ALS of homozygous Mutant 1, read-out: ID50% Mutant; for Fold Increase: fold increase in resistance vs wild type, homozygous Mutant 1, 30 min
Description: as §8, §9, §10, §11, §12

[3] = biological target: ALS extracted from leaves of MUTANT 2 (homozygous); experiment: ALS enzyme assay, homozygous Mutant 2; type: biochemical, Zea mays; conditions: for IC50: ALS of homozygous Mutant 2, read-out: ID50% Mutant; for Fold Increase: fold increase in resistance vs wild type, homozygous Mutant 2, 30 min
Description: as §8, §9, §10, §11, §12

Mutant 7 plants = experiment: Cross-resistance testing (glasshouse dose response), Mutant 7; type: in vivo, Zea mays; conditions: pre-emergence spray, assessed after four weeks growth
Description: as §1, §2, §3, §4, §5, §6, §7

Compound | resistance group, Dose Response (Mutant 8 plants) | resistance group, Dose Response (Mutant 6 plants) | resistance group, Dose Response (Mutant 1 plants) | IC50 [1] | resistance group, Enzyme Assay [1] | Fold Increase [1] | resistance group, Dose Response (Mutant 5 plants) | IC50 [2] | Fold Increase [2] | IC50 [3] | Fold Increase [3] | resistance group, Dose Response (Mutant 7 plants)
COc1nc(C)nc(NC(=O)NS(=O)(=O)c2ccccc2Cl)n1 [Chlorsulfuron, chlorsulfuron] | Zero | Zero | Zero | 8 nM | Zero | 1 | Weak | 60 nM | 3.2 | 40 nM | 2.2 | Weak
CC(C)C1(C)N=C(c2nc3ccccc3cc2C(=O)O)NC1=O (stereo not drawn) [Imazaquin, imazaquin] | Strong | Weak | Strong | 1000 nM | Weak | 2 | Intermediate | 175000 nM | 292 | 40000 nM | 66 | Zero
COc1cc(Cl)nc(NC(=O)NS(=O)(=O)c2ccccc2C(=O)O)n1 [Chlorimuron, chlorimuron] | Zero | Zero | Zero | 5 nM | Weak | 1 | Zero | 10 nM | 2.7 | 20 nM | 5.4 | Zero
CCc1cnc(C2=NC(=O)C(C)(C(C)C)N2)c(C(=O)O)c1 (stereo not drawn) [Imazethapyr, 5-ethyl-2-(5-iso-propyl-5-methyl-4-oxo-2-imidazolin-2-yl) nicotinic acid] | Strong | Intermediate | Strong | 4000 nM | Weak | 3 | Strong | 750000 nM | 500 | 400000 nM | 267 | Weak
